Experimental findings from PMC8223195 (Molecular Diversity, 2021) are described below.

In data set [1] the test system is Capan-1 (pancreatic adenocarcinoma). Description: IncuCyte real-time proliferation assay, Capan-1. The class given is cell-based.
A further data set concerns LN-229 (glioblastoma). Briefly: IncuCyte real-time proliferation assay, LN-229. As to conditions: LN-229, 72 h. The class given is cell-based.
For data set [2], the system named is NCI-H460 (lung carcinoma). Briefly: IncuCyte real-time proliferation assay, NCI-H460. As to conditions: NCI-H460, 72 h. In kind it is cell-based.
Another data set deals with hCoV-229E. The class given is cell-based, human corona virus 229E. As to conditions: for EC50: (*) mean of three independent experiments ± SEM.
For data set [3], the system named is DND-41 (acute lymphoblastic leukemia). Description: IncuCyte real-time proliferation assay, DND-41. The class given is cell-based.
For data set [4], the system named is K-562 (chronic myeloid leukemia). Briefly: IncuCyte real-time proliferation assay, K-562. The class given is cell-based.
For data set [5], the system named is HCT-116 (colorectal carcinoma). Description: IncuCyte real-time proliferation assay, HCT-116. The class given is cell-based. Conditions: HCT-116, 72 h.
The test system of data set [6] is HL-60 (acute myeloid leukemia). Description: IncuCyte real-time proliferation assay, HL-60. In kind it is cell-based. Conditions: HL-60, 72 h.
The test system of data set [7] is Z-138 (non-Hodgkin lymphoma). Description: IncuCyte real-time proliferation assay, Z-138. In kind it is cell-based. Conditions: Z-138, 72 h.
Where [8] appears, read: * mean of two independent experiments ± SEM.
Where [9] appears, read: DND-41, 72 h, * mean of two independent experiments ± SEM.
The mark [10] stands for this setting: Capan-1, 72 h, * mean of two independent experiments ± SEM.
[11] abbreviates: K-562, 72 h, * mean of two independent experiments ± SEM.

Structures are written as SMILES.

In the case of `CN[C@@H]1C[C@H]2O[C@@](C)([C@@H]1OC)n1c3ccccc3c3c4c(c5c6ccccc6n2c5c31)C(=O)NC4` [STS, staurosporine, reference compound], the IC50 in data set [1] (Homo sapiens, CAPAN-1, 72 h) was 0.0007 ± 0.0002 µM; in the data set on LN-229 (glioblastoma) (Homo sapiens) it was 0.0229 ± 0.0021 µM.

For the molecule `COc1ccc(C2=C(C(=O)c3ccc([N+](=O)[O-])cc3)Sc3nnc(-n4nc(C)cc4C)n3N2)c(OC)c1` [Compound 5p, ( ±)-(6-(2,4-dimethoxyphenyl)-3-(3,5-dimethyl-1H-pyrazol-1-yl)-5H-[1,2,4]triazolo[3,4-b][1,3,4]thiadiazin-7-yl)(4-nitrophenyl)methanone], the IC50 in data set [2] (setting [8]), in [3] (setting [9]), in [1] (setting [10]), in [4] (setting [11]), in data set [5] (setting [8]) and in data set [6] (setting [8]) was more than 100 µM each time. For the same molecule, the IC50 (in the data set on LN-229 (glioblastoma) (setting [8]); in data set [7] (setting [8])) was more than 100 µM each time. This molecule yielded an EC50 in the data set with hCoV-229E of more than 100 µM. The molecule also yielded a CC50 in the data set with HEL 299 cells of more than 100 µM.

Take `Cc1cc(C)n(-c2nnc3n2NC(c2cccs2)C(C(=O)c2ccc([N+](=O)[O-])cc2)S3)n1` (racemic) [5 s, ( ±)-(3-(3,5-Dimethyl-1H-pyrazol-1-yl)-6-(thiophen-2-yl)-6,7-dihydro-5H-[1,2,4]triazolo[3,4-b][1,3,4]thiadiazin-7-yl)(4-nitrophenyl)methanone]: the IC50 in data set [2] (setting [8]), in data set [3] (setting [9]), in data set [1] (setting [10]), in data set [4] (setting [11]), in [5] (setting [8]) and in [6] (setting [8]) was more than 100 µM each time. The IC50 (in the data set on LN-229 (glioblastoma) (setting [8]); in data set [7] (setting [8])) was more than 100 µM each time. The same molecule returned an EC50 in the data set with hCoV-229E of more than 100 µM. This molecule also showed a CC50 in the data set on HEL 299 cells of more than 100 µM.

Take `Cc1ccc(C(=O)C2Sc3nnc(-n4nc(C)cc4C)n3NC2c2ccccc2Br)cc1` (racemic) [Compound 5f, ( ±)-(6-(2-Bromophenyl)-3-(3,5-dimethyl-1H-pyrazol-1-yl)-6,7-dihydro-5H-[1,2,4]triazolo[3,4-b][1,3,4]thiadiazin-7-yl)(p-tolyl)methanone]: the IC50 in [2] (setting [8]), in data set [3] (setting [9]), in data set [1] (setting [10]), in data set [4] (setting [11]), in data set [5] (setting [8]) and in data set [6] (setting [8]) was more than 100 µM each time. For the same molecule, the IC50 (in the data set with LN-229 (glioblastoma) (setting [8]); in [7] (setting [8])) was more than 100 µM each time. Also, in the data set with hCoV-229E, the selectivity index result is on record as “favorable selectivity indexes”. In the data set on hCoV-229E, this molecule returned an EC50 of 3.2 ± 1.8 µM. The CC50 in the data set with HEL 299 cells is more than 100 µM.

With `Cc1ccc(C(=O)C2Sc3nnc(-n4nc(C)cc4C)n3NC2c2ccc(C)cc2)cc1` (racemic) [Compound 5b, ( ±)-(3-(3,5-Dimethyl-1H-pyrazol-1-yl)-6-(p-tolyl)-6,7-dihydro-5H-[1,2,4]triazolo[3,4-b][1,3,4]thiadiazin-7-yl)(p-tolyl)methanone], the IC50 is more than 100 µM in data set [2] (setting [8]); 39.3 µM in [3] (setting [9]); 57.5 µM in [1] (setting [10]); 10.4 µM in data set [4] (setting [11]); 67.8 µM in data set [5] (setting [8]); 50.9 µM in data set [6] (setting [8]). Also, the results for the IC50 (in the data set with LN-229 (glioblastoma) (setting [8]); in data set [7] (setting [8])) were 47.1 µM and 48.4 µM, respectively. For the same molecule, in the data set on hCoV-229E, the selectivity index result is given as “favorable selectivity indexes”. This molecule yielded an EC50 in the data set with hCoV-229E of 4.7 ± 0.5 µM. The midpoint of cytotoxicity with HEL 299 cells, the CC50, lay at 81.5 µM.

Turning to `CC(=O)O[C@@]12CO[C@@H]1C[C@H](O)[C@@]1(C)C(=O)[C@H](O)C3=C(C)[C@@H](OC(=O)[C@H](O)[C@@H](NC(=O)OC(C)(C)C)c4ccccc4)C[C@@](O)([C@@H](OC(=O)c4ccccc4)[C@H]21)C3(C)C` [Docetaxel, reference compound], the IC50 in [2] (Homo sapiens) was determined as 0.0038 ± 0.0029 µM; in [3] (DND41, 72 h), 0.0033 ± 0.0014 µM; in data set [1] (Homo sapiens, CAPAN-1, 72 h), 0.0042 ± 0.0021 µM; in data set [4] (Homo sapiens, K562, 72 h) it was 0.0037 ± 0.0003 µM; in data set [5] (Homo sapiens), 0.0009 ± 0.0008 µM; in data set [6] (Homo sapiens), 0.0023 ± 0.0003 µM. The IC50 is 0.0087 ± 0.0004 µM in the data set with LN-229 (glioblastoma) (Homo sapiens) and 0.0011 ± 0.0008 µM in data set [7] (Homo sapiens).

As for `Cc1cc(C)n(-c2nnc3n2NC(c2ccccc2Br)C(C(=O)c2ccc(F)cc2)S3)n1` (racemic) [Compound 5e, ( ±)-(6-(2-Bromophenyl)-3-(3,5-dimethyl-1H-pyrazol-1-yl)-6,7-dihydro-5H-[1,2,4]triazolo[3,4-b][1,3,4]thiadiazin-7-yl)(4-fluorophenyl)methanone], the IC50 in [2] (setting [8]), in data set [3] (setting [9]), in data set [1] (setting [10]), in data set [4] (setting [11]), in data set [5] (setting [8]) and in data set [6] (setting [8]) was more than 100 µM throughout. The IC50 (in the data set on LN-229 (glioblastoma) (setting [8]); in [7] (setting [8])) was more than 100 µM throughout. For the same molecule, the EC50 in the data set on hCoV-229E was more than 100 µM. The molecule also showed a CC50 with HEL 299 cells of more than 100 µM.

On to `COc1cc(C2Nn3c(nnc3-n3nc(C)cc3C)SC2C(=O)c2ccccc2)cc(OC)c1OC` (racemic) [5 m, ( ±)-(3-(3,5-Dimethyl-1H-pyrazol-1-yl)-6-(3,4,5-trimethoxyphenyl)-6,7-dihydro-5H-[1,2,4]triazole [3,4-b][1,3,4]thiadiazin-7-yl)(phenyl)methanone], for which the IC50 in data set [2] (setting [8]), in data set [3] (setting [9]), in data set [1] (setting [10]), in data set [4] (setting [11]), in data set [5] (setting [8]) and in data set [6] (setting [8]) was more than 100 µM throughout. The IC50 (with LN-229 (glioblastoma) (setting [8]); in data set [7] (setting [8])) was more than 100 µM throughout. In the data set with hCoV-229E, this molecule came in with an EC50 of 95.7 µM. This molecule had a CC50 in the data set on HEL 299 cells of more than 100 µM.

Turning to `Cc1cc(C)n(-c2nnc3n2NC(c2cc(F)c(F)c(F)c2)C(C(=O)c2ccccc2)S3)n1` (racemic) [5 k, ( ±)-(3-(3,5-Dimethyl-1H-pyrazol-1-yl)-6-(3,4,5-trifluorophenyl)-6,7-dihydro-5H-[1,2,4]triazole [3,4-b][1,3,4]thiadiazin-7-yl)(phenyl)methanone], the IC50 in [2] (setting [8]), in data set [3] (setting [9]), in data set [1] (setting [10]), in data set [4] (setting [11]), in [5] (setting [8]) and in data set [6] (setting [8]) was more than 100 µM each time. Further, the IC50 (in the data set with LN-229 (glioblastoma) (setting [8]); in data set [7] (setting [8])) was more than 100 µM throughout. For the same molecule, in the data set with hCoV-229E, the concentration giving a half-maximal response (EC50) is more than 100 µM. In the data set on HEL 299 cells, this molecule had a CC50 of more than 100 µM.

Consider `Cc1ccc(C(=O)C2Sc3nnc(-n4nc(C)cc4C)n3NC2c2ccco2)cc1` (racemic) [Compound 5r, ( ±)-(3-(3,5-Dimethyl-1H-pyrazol-1-yl)-6-(furan-2-yl)-6,7-dihydro-5H-[1,2,4]triazolo[3,4-b] [1,3,4]thiadiazin-7-yl)(p-tolyl)methanone], for which the IC50 turned out to be 47 µM in [2] (setting [8]); 70.2 µM in data set [3] (setting [9]); 54.3 µM in data set [1] (setting [10]); 23.5 µM in [4] (setting [11]); 69 µM in data set [5] (setting [8]); 54 µM in data set [6] (setting [8]). The figures for the IC50 (in the data set with LN-229 (glioblastoma) (setting [8]); in data set [7] (setting [8])) were 43.9 µM and 50.2 µM, respectively. In the data set with hCoV-229E, this molecule displayed an EC50 of more than 100 µM. For the same molecule, the CC50 with HEL 299 cells was more than 100 µM.

Turning to `Cc1cc(C)n(-c2nnc3n2NC(c2ccc(Cl)cc2)C(C(=O)c2ccc(Br)cc2)S3)n1` (racemic) [5 g, ( ±)-(4-Bromophenyl)(6-(4-chlorophenyl)-3-(3,5-dimethyl-1H-pyrazol-1-yl)-6,7-dihydro-5H-triazolo[3,4-b][1,3,4]thiadiazin-7-yl)methanone], the IC50 in [2] (setting [8]), in [3] (setting [9]), in data set [1] (setting [10]), in data set [4] (setting [11]), in data set [5] (setting [8]) and in [6] (setting [8]) was more than 100 µM in each case. Also, the IC50 (with LN-229 (glioblastoma) (setting [8]); in data set [7] (setting [8])) was more than 100 µM in each case. The EC50 with hCoV-229E is more than 100 µM. In the data set with HEL 299 cells, this molecule had a CC50 of more than 100 µM.

Turning to `Cc1cc(C)n(-c2nnc3n2NC(c2ccco2)C(C(=O)c2ccc([N+](=O)[O-])cc2)S3)n1` (racemic) [Compound 5t, ( ±)-(3-(3,5-Dimethyl-1H-pyrazol-1-yl)-6-(furan-2-yl)-6,7-dihydro-5H-[1,2,4]triazolo[3,4-b][1,3,4]thiadiazin-7-yl)(4-nitrophenyl)methanone], the IC50 is more than 100 µM in data set [2] (setting [8]); more than 100 µM in data set [3] (setting [9]); more than 100 µM in [1] (setting [10]); 79.3 µM in [4] (setting [11]); more than 100 µM in data set [5] (setting [8]); 74.5 µM in [6] (setting [8]). The results for the IC50 (in the data set on LN-229 (glioblastoma) (setting [8]); in data set [7] (setting [8])) were 62.7 µM and 49.5 µM, respectively. In the data set with hCoV-229E, this molecule gave an EC50 of more than 100 µM. The molecule further registered a CC50 with HEL 299 cells of more than 100 µM.

Turning to `Cc1cc(C)n(-c2nnc3n2NC(c2ccc([N+](=O)[O-])cc2)C(C(=O)c2ccc([N+](=O)[O-])cc2)S3)n1` (racemic) [Compound 5c, ( ±)-(3-(3,5-Dimethyl-1H-pyrazol-1-yl)-6-(4-nitrophenyl)-6,7-dihydro-5H-[1,2,4]triazolo[3,4-b][1,3,4]thiadiazin-7-yl)(4-nitrophenyl)methanone], the IC50 in [2] (setting [8]), in [3] (setting [9]), in [1] (setting [10]), in [4] (setting [11]), in data set [5] (setting [8]) and in data set [6] (setting [8]) was more than 100 µM in each case. For the same molecule, the IC50 (in the data set with LN-229 (glioblastoma) (setting [8]); in [7] (setting [8])) was more than 100 µM each time. The molecule also displayed an EC50 in the data set on hCoV-229E of 24.4 µM. The molecule also registered a CC50 in the data set on HEL 299 cells of more than 100 µM.

In general, IC50 refers to the concentration at which inhibition is half-maximal. Low values mean greater potency in that assay, high ones weaker potency in that assay. As a reminder, the EC50 is the midpoint of the concentration-response curve. A higher EC50 goes with a need for much substance. The CC50 is the concentration that lowers cell viability or growth by half. Read a high CC50 as lower toxicity to the cells.
